Results on 20 compounds are retold here after paper PMC8757611, “Synthesis, biological evaluation, and molecular docking of new series of antitumor and apoptosis inducers designed as VEGFR-2 inhibitors” (Journal of Enzyme Inhibition and Medicinal Chemistry, 2022).

Each structure is given as a SMILES string.

For one series, the system named is VEGFR-2. The arrangement: method as in PMID 22153662. The following applies: cited from earlier work.
For another series, the system named is PC3. Briefly: In vitro antitumor MTT assay, PC3. The following applies: for IC50: Homo sapiens, PC-3, MTT, mean ± S.D. of three experiments. In kind it is cell-based, human. The procedure: (§1) The antitumor assay was performed against the human cancer cell lines: HepG2, PC3, and MCF-7. The chemicals used in this test were supplied by Sigma-Aldrich with high analytical grade. National Cancer Institute (Cairo, Egypt) was the supplier of the cell lines tested which originally obtained from American Type Culture Collection (ATCC). MTT protocol was applied to quantitatively measure the antiproliferative activity of the new derivatives. In this test, the colour change is attributed to that the yellow tetrazolium bromide (MTT) is converted to formazan derivative which has purple colour. This biochemical reaction occurs only in viable cells by mitochondrial succinate dehydrogenase. The tested cells were initially cultured in RPMI-1640 medium with foetal bovine serum (10%). To the incubated cell, streptomycin (100 µg/mL) and penicillin (100 units/mL) were added in a 5% CO2 incubator at 37 °C. Then seeding of the cells was performed in a 96-well plate under 5% CO2 and at density of 1.0 × 10^4 cells/well at 37 °C for 48 h. Various non-toxic concentrations of the tested candidates were added and the cells were then incubated for further 24 h to the cells treated with the new compounds, MTT solution (20 µL at 5 mg/mL) was added, followed by 4 h incubation. One hundred microlitres of Dimethyl sulfoxide (DMSO) were added into each well to dissolve the purple formazan formed which is colorimetrically absorbed at 570 nm using a plate reader (EXL 800, USA). Finally, the percentages of cell viability was obtained as (A570 of treated samples/A570 of untreated sample) × 100.

The target in a further series is T1, VEGFR-2 kinase (Homo sapiens, UniProt P35968).
T1 construct: purchased
Briefly: VEGFR-2 inhibition testing (ELISA kit). In kind it is biochemical. On the procedure:
Enzyme linked immunosorbent assay (ELISA) technique was applied to human VEGFR-2 ELISA kit to calculate IC50 of all new derivatives against VEGFR-2 kinase. The antibody specific to the enzyme was planted on a 96 well microplate to which different micromolar concentrations of the positive control and the new compounds was added. […] Finally, stop solution (50 µL) was added and the reading was immediately determined at 450 nm. To get the standard curve, the concentrations used were presented on the X-axis and the corresponding absorbances were on the Y-axis.

Another series relates to HepG2. Briefly: In vitro antitumor MTT assay, HepG2. The following applies: for IC50: Homo sapiens, HepG2, MTT, mean ± S.D. of three experiments. The class given is cell-based, human. The procedure: as §1
A further series concerns WI-38. Briefly: Cytotoxicity against normal lung fibroblasts (MTT). The class given is cell-based. The following applies: normal human lung fibroblasts. On the procedure: as §1
Of note, the cytotoxicity against normal human lung fibroblasts cell line (WI-38) were examined for the nine selected compounds.

Another series deals with MCF-7. The experiment in a line: In vitro antitumor MTT assay, MCF-7. The class given is cell-based, human. The following applies: for IC50: Homo sapiens, MCF7, MTT, mean ± S.D. of three experiments. On the procedure:
as §1

For series [1], the system named is human cancer cell lines HepG2, PC3, MCF-7. The experiment in a line: In vitro antitumor MTT assay, panel of HepG2, PC3 and MCF-7. The following applies: range over HepG2, PC3 and MCF-7, read-out: IC50 against human cancer cell lines. The class given is cell-based. On the procedure:
as §1

The next series has as its target FGFR. Briefly: Multi-kinase assay (HTRF), FGFR. The class given is biochemical. The procedure:
Different kinases and ATP were obtained from Sigma. The specified kinase and its substrate was incubated with compound for 5 min in buffer solution to start the enzymatic reaction; ATP was then added to the reaction mixture and was maintained for 30 min at room temperature.

`COc1cc2ncnc(Oc3ccc(CC(=O)Nc4cnn(C(C)C)c4)cc3)c2cc1OC` [AZD-2932]: in the series with VEGFR-2, the IC50 is […].

T1 sequence (P35968 20-1356): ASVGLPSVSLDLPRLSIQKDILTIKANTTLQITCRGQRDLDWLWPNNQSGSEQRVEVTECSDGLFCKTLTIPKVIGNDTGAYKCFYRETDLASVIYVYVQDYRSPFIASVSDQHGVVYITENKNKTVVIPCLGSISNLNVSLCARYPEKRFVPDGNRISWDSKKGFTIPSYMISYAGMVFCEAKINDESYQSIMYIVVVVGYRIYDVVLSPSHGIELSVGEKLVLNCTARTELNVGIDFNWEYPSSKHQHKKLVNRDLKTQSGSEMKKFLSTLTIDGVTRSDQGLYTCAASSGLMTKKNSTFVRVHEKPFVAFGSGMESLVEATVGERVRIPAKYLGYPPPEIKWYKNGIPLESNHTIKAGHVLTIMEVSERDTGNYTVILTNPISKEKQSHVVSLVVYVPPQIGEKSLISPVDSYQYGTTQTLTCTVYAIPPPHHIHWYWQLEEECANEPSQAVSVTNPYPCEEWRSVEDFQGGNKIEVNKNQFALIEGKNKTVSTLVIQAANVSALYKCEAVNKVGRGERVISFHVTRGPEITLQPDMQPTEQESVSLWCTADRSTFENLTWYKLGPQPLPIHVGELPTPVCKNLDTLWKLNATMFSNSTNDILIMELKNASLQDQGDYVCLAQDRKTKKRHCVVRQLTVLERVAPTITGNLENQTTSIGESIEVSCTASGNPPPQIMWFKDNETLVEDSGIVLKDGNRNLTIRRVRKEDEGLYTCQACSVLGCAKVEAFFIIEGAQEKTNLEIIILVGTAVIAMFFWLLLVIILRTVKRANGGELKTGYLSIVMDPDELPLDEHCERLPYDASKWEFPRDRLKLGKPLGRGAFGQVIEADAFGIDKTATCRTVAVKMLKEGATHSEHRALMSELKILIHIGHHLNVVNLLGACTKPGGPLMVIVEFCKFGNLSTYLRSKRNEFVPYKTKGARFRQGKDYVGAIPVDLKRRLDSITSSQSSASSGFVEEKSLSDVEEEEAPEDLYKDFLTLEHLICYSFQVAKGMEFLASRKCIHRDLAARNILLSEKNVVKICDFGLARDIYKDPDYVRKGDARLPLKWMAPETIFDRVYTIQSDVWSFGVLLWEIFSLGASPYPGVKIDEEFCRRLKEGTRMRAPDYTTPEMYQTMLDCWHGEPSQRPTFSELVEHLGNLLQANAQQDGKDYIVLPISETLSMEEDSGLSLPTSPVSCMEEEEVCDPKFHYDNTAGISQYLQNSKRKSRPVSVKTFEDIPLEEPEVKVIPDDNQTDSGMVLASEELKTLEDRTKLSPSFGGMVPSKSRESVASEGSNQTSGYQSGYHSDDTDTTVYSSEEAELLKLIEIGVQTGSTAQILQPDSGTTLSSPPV

As for `O=C(Nc1ccccc1)Nc1ccc(Oc2nc(Cl)nc3ccccc23)cc1` [Compound 14a, 1-(4-((2-Chloroquinazolin-4-yl)oxy)phenyl)-3-phenylurea], the melting point was in the range of 236 to 237 °C. In the series with PC3, this compound displayed an IC50 of 50.7 ± 4.36 µM. This compound also registered an IC50 at VEGFR-2 kinase of 0.0671 ± 0.00107 µM. For the same compound, in the series on HepG2, half-maximal inhibition (IC50) was put at 41.5 ± 3.6 µM. In the series on WI-38, this compound yielded an IC50 of 235 ± 2.43 µM. In the series with MCF-7, this compound registered an IC50 of 58.3 ± 4.87 µM.

In the case of `CCCCNC(=O)Nc1ccc(Oc2nc(Cl)nc3ccccc23)cc1` [Compound 14b, 1-Butyl-3-(4-((2-chloroquinazolin-4-yl)oxy)phenyl)urea], the melting point lay within 214 to 215 °C. Further, half-maximal inhibition at VEGFR-2 kinase (IC50) was put at 0.0942 ± 0.00153 µM.

The compound `O=C(Nc1ccc(Oc2nc(Cl)nc3ccccc23)cc1)c1ccccc1` [Compound 15a, N-(4-((2-Chloroquinazolin-4-yl)oxy)phenyl)benzamide] yielded a melting point of 244 to 245 °C. In the series with PC3, this compound came in with an IC50 of 30.3 ± 2.56 µM. Besides, it took 0.0673 ± 0.00154 µM to reach half-maximal inhibition against VEGFR-2 kinase (IC50). Moreover, in the series with HepG2, the half-inhibitory concentration (IC50) is 34.6 ± 2.82 µM. This compound also showed an IC50 with WI-38 of 250 ± 2.51 µM. The IC50 in series [1] was in the range of 17.4 to 47.1 µM. 47.1 ± 3.59 µM corresponded to half-maximal inhibition with MCF-7 (IC50).

The compound `O=C(Nc1ccc(Oc2nc(Cl)nc3ccccc23)cc1)c1ccc(Cl)cc1` [Compound 15b, 4-Chloro-N-(4-((2-chloroquinazolin-4-yl)oxy)phenyl)benzamide] registered a melting point of 249 to 250 °C. The compound also returned an IC50 in the series with PC3 of 25.6 ± 2.31 µM. The “potency relative to sorafenib potency, PC3” value in the series on PC3 (fraction of sorafenib potency) turned out to be 0.76. Besides, the IC50 at VEGFR-2 kinase was 0.0864 ± 0.00176 µM. For the same compound, the IC50 with HepG2 turned out to be 17.4 ± 1.54 µM. The “potency relative to sorafenib potency, HepG2” value in the series with HepG2 (fraction of sorafenib potency) is recorded as 0.74. The IC50 with WI-38 was found to be 233 ± 2.39 µM. The IC50 in [1] fell in the range of 17.4 to 47.1 µM. Also, the IC50 in the series with MCF-7 worked out at 19.9 ± 1.79 µM. Further, the “potency relative to sorafenib potency, MCF-7” value in the series with MCF-7 (fraction of sorafenib potency) stood at 0.73.

Consider `O=C(Nc1ccc(Oc2nc(Cl)nc3ccccc23)cc1)c1cccc(Cl)c1` [Compound 15c, 3-Chloro-N-(4-((2-chloroquinazolin-4-yl)oxy)phenyl)benzamide], for which the melting point was in the range of 229 to 230 °C. The compound further gave an IC50 with PC3 of 56 ± 1.9 µM. At VEGFR-2 kinase, the IC50 is 0.0652 ± 0.00136 µM. This compound displayed an IC50 with HepG2 of 50.4 ± 4.39 µM. Moreover, the IC50 with WI-38 was determined as 236 ± 2.39 µM. Besides, the IC50 with MCF-7 was 62.7 ± 5.12 µM.

`O=C(Nc1ccccc1)Nc1ccc(Oc2nc3ccccc3nc2Cl)cc1` [Compound 19a, 1-(4-((3-Chloroquinoxalin-2-yl)oxy)phenyl)-3-phenylurea] showed a melting point of 248 to 249 °C. Moreover, half-maximal inhibition at VEGFR-2 kinase (IC50) was put at 0.0936 ± 0.00182 µM.

`CCCCNC(=O)Nc1ccc(Oc2nc3ccccc3nc2Cl)cc1` [Compound 19b, 1-Butyl-3-(4-((3-chloroquinoxalin-2-yl)oxy)phenyl)urea] displayed a melting point of 227 to 228 °C. In the series with PC3, this compound registered an IC50 of 84.4 ± 6.68 µM. The same compound yielded an IC50 against VEGFR-2 kinase of 0.0752 ± 0.00157 µM. In the series on HepG2, 73.4 ± 5.95 µM corresponded to half-maximal inhibition (IC50). This compound also registered an IC50 in the series on WI-38 of 230 ± 2.51 µM. In the series on MCF-7, this compound gave an IC50 of 105 ± 7.57 µM.

Compound `O=C(Nc1ccc(Oc2nc3ccccc3nc2Cl)cc1)c1ccccc1` [Compound 20a, N-(4-((3-Chloroquinoxalin-2-yl)oxy)phenyl)benzamide] displayed a melting point of 258 to 259 °C. Further, on VEGFR-2 kinase, 0.108 ± 0.00225 µM corresponded to half-maximal inhibition (IC50).

The compound `O=C(Nc1ccc(Oc2nc3ccccc3nc2Cl)cc1)c1ccc(Cl)cc1` [Compound 20b, 4-Chloro-N-(4-((3-chloroquinoxalin-2-yl)oxy)phenyl)benzamide] came in with a melting point of 264 to 265 °C. Also, the IC50 against VEGFR-2 kinase amounted to 0.114 ± 0.00283 µM.

Compound `O=C(Nc1ccc(Oc2nc3ccccc3nc2Cl)cc1)c1cccc(Cl)c1` [Compound 20c, 3-Chloro-N-(4-((3-chloroquinoxalin-2-yl)oxy)phenyl)benzamide] returned a melting point of 243 to 244 °C. Further, 157 ± 10 µM corresponded to half-maximal inhibition in the series with PC3 (IC50). This compound also displayed an IC50 against VEGFR-2 kinase of 0.0866 ± 0.00175 µM. In addition, half-maximal inhibition in the series on HepG2 (IC50) required 144 ± 9.51 µM. This compound came in with an IC50 in the series on WI-38 of 402.9 ± 3.26 µM. In addition, the IC50 with MCF-7 came to 135 ± 9.02 µM.

As for `O=C(Nc1ccc(Oc2nc3ccccc3nc2Cl)cc1)c1cccnc1` [Compound 20d, N-(4-((3-Chloroquinoxalin-2-yl)oxy)phenyl)nicotinamide], the melting point was in the range of 219 to 220 °C. The compound also registered an IC50 with PC3 of over 300 µM. Besides, at VEGFR-2 kinase, the half-maximal inhibitory concentration (IC50) was 0.0696 ± 0.00116 µM. Further, the IC50 in the series on HepG2 turned out to be 221 ± 11.4 µM. Further, in the series with WI-38, the IC50 stood at 460.7 ± 4.04 µM. Besides, 246 ± 13.6 µM corresponded to half-maximal inhibition with MCF-7 (IC50).

Compound `O=C(Nc1ccccc1)Nc1ccc(Oc2ccccc2[N+](=O)[O-])cc1` [Compound 22a, 1-(4-(2-Nitrophenoxy)phenyl)-3-phenylurea] came in with a melting point of 175 to 176 °C. This compound also registered an IC50 at VEGFR-2 kinase of 0.124 ± 0.00378 µM.

The compound `CCCCNC(=O)Nc1ccc(Oc2ccccc2[N+](=O)[O-])cc1` [Compound 22b, 1-Butyl-3-(4-(2-nitrophenoxy)phenyl)urea] showed a melting point of 163 to 164 °C. In addition, the IC50 at VEGFR-2 kinase was found to be 0.107 ± 0.002 µM.

The compound `O=C(Nc1ccc(Oc2ccccc2[N+](=O)[O-])cc1)c1ccccc1` [Compound 23a, N-(4–(2-Nitrophenoxy)phenyl)benzamide] gave a melting point of 197 to 198 °C. In the series with PC3, this compound showed an IC50 of 221 ± 12.9 µM. The compound further returned an IC50 against VEGFR-2 kinase of 0.0748 ± 0.00167 µM. In the series with HepG2, this compound came in with an IC50 of 153 ± 10.8 µM. Further, in the series with WI-38, the IC50 worked out at 758.2 ± 5.15 µM. Half-maximal inhibition in the series on MCF-7 (IC50) was put at 234 ± 13.2 µM.

In turn, `O=C(Nc1ccc(Oc2ccccc2[N+](=O)[O-])cc1)c1cccc(Cl)c1` [Compound 23b, 3-Chloro-N-(4–(2-nitrophenoxy)phenyl)benzamide] gave a melting point of 169 to 170 °C. This compound also showed an IC50 against VEGFR-2 kinase of 0.105 ± 0.0025 µM.

In the case of `O=C(Nc1ccc(Oc2ccccc2[N+](=O)[O-])cc1)c1cccnc1` [Compound 23c, N-(4–(2-Nitrophenoxy)phenyl)nicotinamide], the melting point is 160 to 161 °C. At VEGFR-2 kinase, this compound came in with an IC50 of 0.119 ± 0.00316 µM.

With `COc1cccc2c1C(=O)c1c(O)c3c(c(O)c1C2=O)C[C@@](O)(C(=O)CO)C[C@@H]3O[C@H]1C[C@H](N)[C@H](O)[C@H](C)O1` [Doxorubicin, reference compound], the IC50 worked out at 16.3 ± 1.1 µM with PC3, 14.6 ± 1.1 µM in the series with HepG2 and 12.4 ± 0.74 µM with MCF-7.

Turning to `C#Cc1cccc(Nc2ncnc3cc(OCCOC)c(OCCOC)cc23)c1` [Erlotinib, reference compound], 0.034 ± 0.00092 µM corresponded to half-maximal inhibition on FGFR (IC50).

`CNC(=O)c1cc(Oc2ccc(NC(=O)Nc3ccc(Cl)c(C(F)(F)F)c3)cc2)ccn1` [Sorafenib, reference compound]: the IC50 came out at 19.4 ± 1.34 µM in the series on PC3, 12.9 ± 0.85 µM in the series with HepG2 and 14.5 ± 1.68 µM in the series on MCF-7.
